Test results published in ChEMBL document CHEMBL1275351, “Novel spirotetracyclic zwitterionic dual H(1)/5-HT(2A) receptor antagonists for the treatment of sleep disorders” (J Med Chem, 2010).

biological target: Histamine H1 receptor (Homo sapiens, UniProt P35367); test: Antagonist activity against human histamine H1 receptor expressed in CHO cells by FLIPR assay; type: functional, cell-based
Sequence (P35367 whole entry): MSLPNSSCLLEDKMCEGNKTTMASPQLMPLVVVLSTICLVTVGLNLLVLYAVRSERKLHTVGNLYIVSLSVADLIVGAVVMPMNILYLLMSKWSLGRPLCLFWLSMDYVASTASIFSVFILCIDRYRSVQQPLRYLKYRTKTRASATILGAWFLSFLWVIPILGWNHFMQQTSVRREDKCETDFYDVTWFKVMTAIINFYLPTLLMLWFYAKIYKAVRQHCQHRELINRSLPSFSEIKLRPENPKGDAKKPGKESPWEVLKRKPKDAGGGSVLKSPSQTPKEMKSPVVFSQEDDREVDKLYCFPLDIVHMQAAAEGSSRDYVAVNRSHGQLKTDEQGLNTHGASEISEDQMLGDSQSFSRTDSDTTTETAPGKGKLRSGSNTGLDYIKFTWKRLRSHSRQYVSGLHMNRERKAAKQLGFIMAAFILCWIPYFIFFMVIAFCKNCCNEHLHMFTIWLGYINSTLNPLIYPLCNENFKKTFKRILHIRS

SMILES | Ki
O=C(O)C1(F)CCN(C2CCC3(Cc4ccccc4Oc4ccccc43)C2)CC1 (stereo not drawn) | 158 nM
O=C(O)[C@@H]1CCCN(C2CCC3(Cc4ccccc4Oc4ccccc43)C2)C1 (stereo partly drawn) | 126 nM
O=C(O)C1=CCCN(C2CCC3(C2)C(=O)c2ccccc2Cc2ccccc23)C1 (stereo not drawn) | 79.4 nM
O=C(O)[C@@H]1CCCN(C2CC[C@]3(Cc4ccccc4Cc4ccccc43)C2)C1 (stereo partly drawn) | 20 nM

Results, then the compound that gave them:

Ki | SMILES
1000 nM | O=C(O)C1CCN(C2CCC3(C2)C(=O)c2cc(Cl)ccc2Oc2ccccc23)CC1 (stereo not drawn)
200 nM | O=C(O)C1CCN(C2CCC3(C2)C(=O)c2cc(F)ccc2Sc2ccccc23)CC1 (stereo not drawn)
200 nM | O=C(O)[C@@H]1CCCN(C2CCC3(C2)C(=O)c2cc(Cl)ccc2Oc2ccccc23)C1 (stereo partly drawn)
25.1 nM | O=C(O)CC1CCN(C2CCC3(Cc4ccccc4Cc4ccccc43)C2)CC1 (stereo not drawn)

biological target: 5-hydroxytryptamine receptor 2A (Homo sapiens, UniProt P28223); test: Antagonist activity at human 5HT2A receptor expressed in HEK cells assessed as inhibition of intracellular calcium accumulation by aequorin assay; type: functional, cell-based, HEK293
Sequence (P28223 whole entry): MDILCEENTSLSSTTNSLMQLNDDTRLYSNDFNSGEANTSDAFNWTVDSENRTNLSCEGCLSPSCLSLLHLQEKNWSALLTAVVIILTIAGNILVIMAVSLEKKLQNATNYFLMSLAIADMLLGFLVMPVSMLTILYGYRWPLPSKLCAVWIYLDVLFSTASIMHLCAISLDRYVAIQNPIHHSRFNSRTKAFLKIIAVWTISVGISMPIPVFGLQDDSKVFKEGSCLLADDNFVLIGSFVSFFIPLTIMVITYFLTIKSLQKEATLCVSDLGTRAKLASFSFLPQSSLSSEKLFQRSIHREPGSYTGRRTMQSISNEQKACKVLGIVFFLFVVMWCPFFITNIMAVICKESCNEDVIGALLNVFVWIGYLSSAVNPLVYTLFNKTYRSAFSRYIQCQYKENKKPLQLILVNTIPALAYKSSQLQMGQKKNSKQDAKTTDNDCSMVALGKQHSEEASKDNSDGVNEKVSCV

SMILES | Ki
O=C(O)C1(F)CCN(C2CCC3(Cc4ccccc4Oc4ccccc43)C2)CC1 (stereo not drawn) | 398 nM
O=C(O)[C@@H]1CCCN(C2CCC3(Cc4ccccc4Oc4ccccc43)C2)C1 (stereo partly drawn) | 100 nM
O=C(O)C1=CCCN(C2CCC3(C2)C(=O)c2ccccc2Cc2ccccc23)C1 (stereo not drawn) | > 2000 nM
O=C(O)[C@@H]1CCCN(C2CC[C@]3(Cc4ccccc4Cc4ccccc43)C2)C1 (stereo partly drawn) | 63.1 nM

Now from value to compound:

Ki | SMILES
398 nM | O=C(O)C1CCN(C2CCC3(C2)C(=O)c2cc(Cl)ccc2Oc2ccccc23)CC1 (stereo not drawn)
126 nM | O=C(O)C1CCN(C2CCC3(C2)C(=O)c2cc(F)ccc2Sc2ccccc23)CC1 (stereo not drawn)
> 2000 nM | O=C(O)[C@@H]1CCCN(C2CCC3(C2)C(=O)c2cc(Cl)ccc2Oc2ccccc23)C1 (stereo partly drawn)
631 nM | O=C(O)CC1CCN(C2CCC3(Cc4ccccc4Cc4ccccc43)C2)CC1 (stereo not drawn)

biological target: 5-hydroxytryptamine receptor 2B (Homo sapiens, UniProt P41595); test: Antagonist activity at human 5HT2B receptor expressed in human SH-SY5Y cells by FLIPR assay
Sequence (P41595 whole entry): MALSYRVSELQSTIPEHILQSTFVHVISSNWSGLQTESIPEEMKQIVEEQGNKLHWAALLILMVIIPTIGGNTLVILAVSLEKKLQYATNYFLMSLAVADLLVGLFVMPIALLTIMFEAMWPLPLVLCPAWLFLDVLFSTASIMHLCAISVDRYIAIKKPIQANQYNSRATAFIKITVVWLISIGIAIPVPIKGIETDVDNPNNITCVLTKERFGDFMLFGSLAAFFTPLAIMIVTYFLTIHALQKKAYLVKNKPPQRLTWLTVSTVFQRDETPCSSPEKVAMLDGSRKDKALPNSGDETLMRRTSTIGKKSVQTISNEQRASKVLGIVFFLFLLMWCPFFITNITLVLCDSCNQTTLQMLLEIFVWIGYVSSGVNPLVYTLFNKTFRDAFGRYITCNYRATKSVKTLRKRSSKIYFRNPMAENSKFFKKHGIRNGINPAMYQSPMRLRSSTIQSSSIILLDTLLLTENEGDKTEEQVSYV

SMILES | Ki
O=C(O)C1(F)CCN(C2CCC3(Cc4ccccc4Oc4ccccc43)C2)CC1 (stereo not drawn) | > 2000 nM
O=C(O)[C@@H]1CCCN(C2CCC3(Cc4ccccc4Oc4ccccc43)C2)C1 (stereo partly drawn) | > 2000 nM
O=C(O)[C@@H]1CCCN(C2CC[C@]3(Cc4ccccc4Cc4ccccc43)C2)C1 (stereo partly drawn) | 1260 nM

Further lines, results first:

Ki | SMILES
> 2000 nM | O=C(O)C1CCN(C2CCC3(C2)C(=O)c2cc(Cl)ccc2Oc2ccccc23)CC1 (stereo not drawn)
> 2000 nM | O=C(O)C1CCN(C2CCC3(C2)C(=O)c2cc(F)ccc2Sc2ccccc23)CC1 (stereo not drawn)
> 2000 nM | O=C(O)[C@@H]1CCCN(C2CCC3(C2)C(=O)c2cc(Cl)ccc2Oc2ccccc23)C1 (stereo partly drawn)
1000 nM | O=C(O)CC1CCN(C2CCC3(Cc4ccccc4Cc4ccccc43)C2)CC1 (stereo not drawn)

biological target: T1, 5-hydroxytryptamine receptor 2C (Homo sapiens, UniProt P28335); test: Antagonist activity at human 5HT2C receptor expressed in human SH-SY5Y cells by FLIPR assay; type: functional, cell-based
T1 sequence (P28335 whole entry): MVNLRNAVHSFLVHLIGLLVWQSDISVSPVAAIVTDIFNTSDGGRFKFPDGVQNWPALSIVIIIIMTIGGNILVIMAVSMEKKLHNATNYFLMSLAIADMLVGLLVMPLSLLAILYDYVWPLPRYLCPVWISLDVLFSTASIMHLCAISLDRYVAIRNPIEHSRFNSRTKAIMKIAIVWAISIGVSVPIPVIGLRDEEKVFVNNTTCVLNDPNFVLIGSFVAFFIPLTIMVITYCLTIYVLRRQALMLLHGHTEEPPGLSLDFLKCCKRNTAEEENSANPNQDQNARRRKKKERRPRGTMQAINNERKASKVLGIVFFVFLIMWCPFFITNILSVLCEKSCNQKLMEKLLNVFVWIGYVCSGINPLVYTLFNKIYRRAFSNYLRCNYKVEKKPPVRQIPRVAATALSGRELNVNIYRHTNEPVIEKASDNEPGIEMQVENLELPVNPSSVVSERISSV

SMILES | Ki
O=C(O)C1(F)CCN(C2CCC3(Cc4ccccc4Oc4ccccc43)C2)CC1 (stereo not drawn) | > 2000 nM
O=C(O)C1=CCCN(C2CCC3(C2)C(=O)c2ccccc2Cc2ccccc23)C1 (stereo not drawn) | > 2000 nM
O=C(O)[C@@H]1CCCN(C2CC[C@]3(Cc4ccccc4Cc4ccccc43)C2)C1 (stereo partly drawn) | 31.6 nM

Continued, values first:

Ki | SMILES
> 2000 nM | O=C(O)C1CCN(C2CCC3(C2)C(=O)c2cc(F)ccc2Sc2ccccc23)CC1 (stereo not drawn)
> 2510 nM | O=C(O)CC1CCN(C2CCC3(Cc4ccccc4Cc4ccccc43)C2)CC1 (stereo not drawn)
